Experimental data: patent publication US20160113932A1, “TREATMENT OF CANCERS USING PI3 KINASE ISOFORM MODULATORS” (INFINITY PHARMACEUTICALS, INC., priority 2013, published 2016)

What was measured:
PI3K δ = PI3K δ (Homo sapiens, UniProt O00329); assay: PI3K lipid kinase inhibition assay (TLC or HTRF), PI3K δ; assay type: biochemical; design: purchased Upstate; conditions: In Vitro
From the text: (§1) Other commercial kits or systems for assaying PI3K activities are available. […] An exemplary system is PI 3-Kinase (human) HTRF™ Assay from Upstate.

PI3K β = target: T1, PI3K β (Homo sapiens, UniProt P42338); assay: PI3K lipid kinase inhibition assay (TLC or HTRF), PI3K β; assay type: biochemical; conditions: In Vitro
T1 construct: purchased Upstate
From the text: as §1

PI3K α = target: T2, PI3K α (Homo sapiens, UniProt P42336); assay: PI3K lipid kinase inhibition assay (TLC or HTRF), PI3K α; assay type: biochemical; conditions: In Vitro
T2 construct: purchased Upstate
From the text: as §1

PI3K γ = target: T3, PI3K γ (Homo sapiens, UniProt P48736); assay: PI3K lipid kinase inhibition assay (TLC or HTRF), PI3K γ; assay type: biochemical; conditions: In Vitro
T3 construct: purchased Sigma
From the text: as §1

RPMI-8226 = assay: Combination with BTK inhibitor, 72 h ATPLite, 6x6 dose matrix (multiple myeloma); assay type: cell-based; conditions: in combination with Compound 292
Protocol: (§2) The method is described as follows. Cells are thawed from a liquid nitrogen preserved state. Once cells have been expanded and divide at their expected doubling times, screening begins. Cells are seeded in growth media in either black 1536-well or 384-well tissue culture treated plates. […] These Tzero (T0) plates are read using ultra-sensitive luminescence on Envision plate readers (Perkin Elmer). […] All data points are collected via automated processes, quality controlled and analyzed using Zalicus software.
(§3) I ranges from 0% (when T=V) to 100% (when T=0). […] The measure of effect in the experiment can be the inhibition of cellular response relative to the untreated level (vehicle alone). For untreated vehicle and treated levels V and T, a fractional inhibition 1=1−T/V is calculated. The inhibition ranges from 0% at the untreated level to 100% when T=0 Inhibition levels are negative for agents that actually increase levels. Other effect measures, such as an activity ratio r=T/V may be more appropriate for some assays. When activity ratios (e.g, fold increase over […] control) are being used, the effect can be measured using an induction I=1n(T/V). With this definition, all effect expressions are the same as for inhibition.
(§4) Growth Inhibition (GI) is used as a measure of cell viability. […] A GI reading of 100% represents complete growth inhibition-T72 compound-treated and T0 vehicle signals are matched. […] A GI reading of 200% represents complete death of all cells in the culture well. Compounds reaching an activity plateau of GI 200% are considered cytotoxic. GI is calculated by applying the following test and equation: […]
(§5) Combination analysis data were collected in a 6×6 dose matrix. Synergy is calculated by comparing a combination's response to those of its single compound, against the drug-with-itself dose-additive reference model. Deviations from dose additivity may be assessed visually on an isobologram or numerically with a Combination Index (CI). […] Additive effect is CI=1.0. […] Antagonistic effect is CI>1.0.
(§6) To measure combination effects in excess of Loewe additivity, a scalar measure to characterize the strength of synergistic interaction termed the Synergy Score is devised. The Synergy Score is calculated as: […]
The fractional inhibition for each component agent and combination point in the matrix is calculated relative to the median of all vehicle-treated control wells. The Synergy Score equation integrates the experimentally-observed activity volume at each point in the matrix in excess of a model surface numerically derived from the activity of the component agents using the Loewe model for additivity. […]

DOHH-2 = conditions: in combination with Compound 292
Protocol: as §2, §3, §4, §5, §6
(§7) The fractional inhibition for each component agent and combination point in the matrix is calculated relative to the median of all vehicle-treated control wells. The Synergy Score equation integrates the experimentally-observed activity volume at each point in the matrix in excess of a model surface numerically derived from the activity of the component agents using the Loewe model for additivity. Additional terms in the Synergy Score equation (above) are used to normalize for various dilution factors used for individual agents and to allow for comparison of synergy scores across an entire experiment. The inclusion of positive inhibition gating or an Idata multiplier removes noise near the zero effect level, and biases results for synergistic interactions at that occur at high activity levels.
(§8) Loewe Volume (Loewe Vol) is used to assess the overall magnitude of the combination interaction in excess of the Loewe additivity model. Loewe Volume is particularly useful when distinguishing synergistic increases in a phenotypic activity (positive Loewe Volume) versus synergistic antagonisms (negative Loewe Volume). […] This model defines additivity as a non-synergistic combination interaction where the combination dose matrix surface should be indistinguishable from either drug crossed with itself.

OCI-LY3 = conditions: in combination with Compound 292
Protocol: as §2, §3, §4, §5, §6, §7, §8

U-2932 = conditions: in combination with Compound 292
Protocol: as §2, §3, §4, §5, §6, §7, §8

OPM-2 = conditions: in combination with Compound 292
Protocol: as §2, §3, §4, §5, §6, §7, §8

OCI-Ly7 = conditions: in combination with Compound 292
Protocol: as §2, §3, §4, §5, §6, §7, §8

Mino = conditions: in combination with Compound 292
Protocol: as §2, §3, §4, §5, §6, §7, §8

HBL-1 = conditions: in combination with Compound 292
Protocol: as §2, §3, §4, §5, §6, §7, §8

Jeko-1 = conditions: in combination with Compound 292
Protocol: as §2, §3, §4, §5, §6, §7, §8

HH = conditions: in combination with Compound 292
Protocol: as §2, §3, §4, §5, §6, §7, §8

Farage = conditions: in combination with Compound 292
Protocol: as §2, §3, §4, §5, §6, §7, §8

KARPAS-299 = conditions: in combination with Compound 292
Protocol: as §2, §3, §4, §5, §6, §7, §8

TMD8 = conditions: in combination with Compound 292
Protocol: as §2, §3, §4, §5, §6, §7, §8

SU-DHL-4-epst = conditions: in combination with Compound 292
Protocol: as §2, §3, §4, §5, §6, §7, §8

NCI-H929 = conditions: in combination with Compound 292
Protocol: as §2, §3, §4, §5, §6, §7, §8

SU-DHL-10-epst = conditions: in combination with Compound 292
Protocol: as §2, §3, §4, §5, §6, §7, §8

GRANTA-519 = conditions: in combination with Compound 292
Protocol: as §2, §3, §4, §5, §6, §7, §8

KARPAS-422 = conditions: in combination with Compound 292
Protocol: as §2, §3, §4, §5, §6, §7, §8

WSU-NHL = conditions: in combination with Compound 292
Protocol: as §2, §3, §4, §5, §6, §7, §8

RL = assay: Combination with BTK inhibitor, 72 h ATPLite, 6x6 dose matrix (follicular lymphoma); assay type: cell-based; conditions: in combination with Compound 292
Protocol: as §2, §3, §4, §5, §6, §7, §8

T3 sequence (P48736 whole entry): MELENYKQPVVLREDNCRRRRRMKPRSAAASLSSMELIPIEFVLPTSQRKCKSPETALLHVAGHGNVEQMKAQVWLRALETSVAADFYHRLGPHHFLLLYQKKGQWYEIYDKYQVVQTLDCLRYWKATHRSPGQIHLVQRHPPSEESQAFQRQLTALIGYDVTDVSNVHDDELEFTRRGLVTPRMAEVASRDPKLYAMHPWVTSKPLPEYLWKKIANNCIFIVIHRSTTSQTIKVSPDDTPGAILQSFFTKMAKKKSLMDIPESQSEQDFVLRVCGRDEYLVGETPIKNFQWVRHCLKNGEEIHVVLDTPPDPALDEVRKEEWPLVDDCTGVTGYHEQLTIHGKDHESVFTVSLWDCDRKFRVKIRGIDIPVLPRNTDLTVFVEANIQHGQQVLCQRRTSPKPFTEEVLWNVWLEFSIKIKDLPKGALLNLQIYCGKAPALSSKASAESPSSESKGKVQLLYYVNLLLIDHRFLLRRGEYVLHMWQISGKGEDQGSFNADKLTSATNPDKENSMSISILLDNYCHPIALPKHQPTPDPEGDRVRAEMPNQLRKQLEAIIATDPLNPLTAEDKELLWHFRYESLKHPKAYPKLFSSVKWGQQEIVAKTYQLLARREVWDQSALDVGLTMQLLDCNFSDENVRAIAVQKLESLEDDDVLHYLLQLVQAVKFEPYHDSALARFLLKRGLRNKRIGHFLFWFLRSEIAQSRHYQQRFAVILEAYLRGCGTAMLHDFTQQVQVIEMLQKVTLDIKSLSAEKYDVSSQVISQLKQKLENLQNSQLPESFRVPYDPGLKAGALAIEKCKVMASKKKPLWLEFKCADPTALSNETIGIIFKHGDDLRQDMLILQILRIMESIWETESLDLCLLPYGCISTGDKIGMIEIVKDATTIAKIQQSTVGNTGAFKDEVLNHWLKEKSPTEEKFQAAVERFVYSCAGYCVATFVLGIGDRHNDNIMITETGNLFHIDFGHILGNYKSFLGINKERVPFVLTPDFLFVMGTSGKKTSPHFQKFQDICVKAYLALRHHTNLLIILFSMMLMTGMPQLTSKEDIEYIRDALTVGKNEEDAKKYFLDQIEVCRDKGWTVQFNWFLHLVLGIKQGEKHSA
PI3K δ, sequence (O00329 whole entry): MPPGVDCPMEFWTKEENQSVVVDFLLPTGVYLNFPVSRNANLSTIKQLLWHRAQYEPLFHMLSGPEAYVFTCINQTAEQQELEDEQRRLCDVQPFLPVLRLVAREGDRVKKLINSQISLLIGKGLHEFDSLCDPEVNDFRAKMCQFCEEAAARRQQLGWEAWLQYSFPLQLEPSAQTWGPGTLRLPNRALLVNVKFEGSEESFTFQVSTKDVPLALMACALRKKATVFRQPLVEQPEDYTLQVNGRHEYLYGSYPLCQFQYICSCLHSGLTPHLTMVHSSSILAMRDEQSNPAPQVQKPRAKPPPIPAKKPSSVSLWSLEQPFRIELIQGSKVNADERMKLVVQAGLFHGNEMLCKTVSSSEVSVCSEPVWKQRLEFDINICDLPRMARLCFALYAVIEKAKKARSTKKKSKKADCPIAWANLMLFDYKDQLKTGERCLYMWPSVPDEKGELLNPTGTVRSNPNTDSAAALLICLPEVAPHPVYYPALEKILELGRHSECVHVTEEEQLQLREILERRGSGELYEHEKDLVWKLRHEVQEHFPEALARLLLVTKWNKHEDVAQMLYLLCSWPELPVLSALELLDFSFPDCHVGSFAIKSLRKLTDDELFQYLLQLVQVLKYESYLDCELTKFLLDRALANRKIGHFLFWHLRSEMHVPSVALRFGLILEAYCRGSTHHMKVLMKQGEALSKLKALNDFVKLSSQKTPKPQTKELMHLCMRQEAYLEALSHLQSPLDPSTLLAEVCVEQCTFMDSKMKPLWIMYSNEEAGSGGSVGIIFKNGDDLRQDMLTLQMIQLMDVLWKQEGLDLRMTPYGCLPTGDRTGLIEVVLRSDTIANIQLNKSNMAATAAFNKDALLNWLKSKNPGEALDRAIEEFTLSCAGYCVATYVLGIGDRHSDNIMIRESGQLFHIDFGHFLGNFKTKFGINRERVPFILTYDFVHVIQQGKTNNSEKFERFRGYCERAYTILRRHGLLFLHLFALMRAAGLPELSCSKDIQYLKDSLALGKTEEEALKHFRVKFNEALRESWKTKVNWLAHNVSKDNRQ
PI3K δ, sequence (P27986 whole entry partner): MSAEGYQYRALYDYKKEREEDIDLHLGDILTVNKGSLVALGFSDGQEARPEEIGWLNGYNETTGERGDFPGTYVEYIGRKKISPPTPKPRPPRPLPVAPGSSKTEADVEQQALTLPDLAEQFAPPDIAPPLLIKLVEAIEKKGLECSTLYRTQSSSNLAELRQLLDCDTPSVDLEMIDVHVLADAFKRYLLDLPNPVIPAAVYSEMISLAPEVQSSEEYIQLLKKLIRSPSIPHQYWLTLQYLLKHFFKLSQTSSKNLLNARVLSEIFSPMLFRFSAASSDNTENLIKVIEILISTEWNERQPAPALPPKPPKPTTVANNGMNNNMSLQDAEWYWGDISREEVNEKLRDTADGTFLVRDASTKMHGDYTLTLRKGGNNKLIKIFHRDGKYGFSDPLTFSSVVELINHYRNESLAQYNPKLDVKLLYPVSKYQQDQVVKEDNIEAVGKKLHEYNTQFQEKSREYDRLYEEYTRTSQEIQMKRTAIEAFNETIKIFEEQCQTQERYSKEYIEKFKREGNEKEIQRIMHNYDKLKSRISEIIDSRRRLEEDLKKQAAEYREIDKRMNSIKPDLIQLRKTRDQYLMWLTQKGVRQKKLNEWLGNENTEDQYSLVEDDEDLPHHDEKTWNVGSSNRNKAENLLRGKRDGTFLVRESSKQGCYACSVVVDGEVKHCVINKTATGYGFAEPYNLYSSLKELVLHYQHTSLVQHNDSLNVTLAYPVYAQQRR
T1 sequence (P42338 whole entry): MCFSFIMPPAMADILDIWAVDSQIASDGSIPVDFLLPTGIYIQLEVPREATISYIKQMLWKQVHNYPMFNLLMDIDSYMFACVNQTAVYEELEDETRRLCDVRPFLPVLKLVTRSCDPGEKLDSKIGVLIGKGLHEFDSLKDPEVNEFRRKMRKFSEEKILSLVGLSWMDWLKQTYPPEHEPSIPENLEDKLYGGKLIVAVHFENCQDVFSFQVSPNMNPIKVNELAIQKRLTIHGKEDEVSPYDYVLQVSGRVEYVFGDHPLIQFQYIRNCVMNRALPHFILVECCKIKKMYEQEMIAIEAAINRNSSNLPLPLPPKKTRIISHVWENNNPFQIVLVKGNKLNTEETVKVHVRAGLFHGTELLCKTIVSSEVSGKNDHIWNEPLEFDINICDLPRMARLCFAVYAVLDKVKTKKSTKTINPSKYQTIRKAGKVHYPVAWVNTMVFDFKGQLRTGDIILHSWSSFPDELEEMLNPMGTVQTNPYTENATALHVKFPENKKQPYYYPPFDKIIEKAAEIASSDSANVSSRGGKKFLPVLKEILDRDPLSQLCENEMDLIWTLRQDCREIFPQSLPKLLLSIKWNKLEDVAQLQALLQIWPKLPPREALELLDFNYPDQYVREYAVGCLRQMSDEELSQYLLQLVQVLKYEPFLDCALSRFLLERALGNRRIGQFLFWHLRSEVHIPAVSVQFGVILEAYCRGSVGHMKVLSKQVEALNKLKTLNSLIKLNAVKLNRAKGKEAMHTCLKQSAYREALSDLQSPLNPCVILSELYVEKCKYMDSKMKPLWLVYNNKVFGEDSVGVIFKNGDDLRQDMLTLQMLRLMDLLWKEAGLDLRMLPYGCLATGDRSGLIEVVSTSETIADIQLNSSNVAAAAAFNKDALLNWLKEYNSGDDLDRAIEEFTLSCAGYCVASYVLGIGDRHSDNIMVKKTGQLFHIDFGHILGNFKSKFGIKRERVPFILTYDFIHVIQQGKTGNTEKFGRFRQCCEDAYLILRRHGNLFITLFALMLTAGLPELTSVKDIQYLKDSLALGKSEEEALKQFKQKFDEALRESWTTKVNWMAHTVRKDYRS
T1 sequence (P27986 whole entry partner): as the sequence (P27986 whole entry partner) above
T2 sequence (P42336 whole entry): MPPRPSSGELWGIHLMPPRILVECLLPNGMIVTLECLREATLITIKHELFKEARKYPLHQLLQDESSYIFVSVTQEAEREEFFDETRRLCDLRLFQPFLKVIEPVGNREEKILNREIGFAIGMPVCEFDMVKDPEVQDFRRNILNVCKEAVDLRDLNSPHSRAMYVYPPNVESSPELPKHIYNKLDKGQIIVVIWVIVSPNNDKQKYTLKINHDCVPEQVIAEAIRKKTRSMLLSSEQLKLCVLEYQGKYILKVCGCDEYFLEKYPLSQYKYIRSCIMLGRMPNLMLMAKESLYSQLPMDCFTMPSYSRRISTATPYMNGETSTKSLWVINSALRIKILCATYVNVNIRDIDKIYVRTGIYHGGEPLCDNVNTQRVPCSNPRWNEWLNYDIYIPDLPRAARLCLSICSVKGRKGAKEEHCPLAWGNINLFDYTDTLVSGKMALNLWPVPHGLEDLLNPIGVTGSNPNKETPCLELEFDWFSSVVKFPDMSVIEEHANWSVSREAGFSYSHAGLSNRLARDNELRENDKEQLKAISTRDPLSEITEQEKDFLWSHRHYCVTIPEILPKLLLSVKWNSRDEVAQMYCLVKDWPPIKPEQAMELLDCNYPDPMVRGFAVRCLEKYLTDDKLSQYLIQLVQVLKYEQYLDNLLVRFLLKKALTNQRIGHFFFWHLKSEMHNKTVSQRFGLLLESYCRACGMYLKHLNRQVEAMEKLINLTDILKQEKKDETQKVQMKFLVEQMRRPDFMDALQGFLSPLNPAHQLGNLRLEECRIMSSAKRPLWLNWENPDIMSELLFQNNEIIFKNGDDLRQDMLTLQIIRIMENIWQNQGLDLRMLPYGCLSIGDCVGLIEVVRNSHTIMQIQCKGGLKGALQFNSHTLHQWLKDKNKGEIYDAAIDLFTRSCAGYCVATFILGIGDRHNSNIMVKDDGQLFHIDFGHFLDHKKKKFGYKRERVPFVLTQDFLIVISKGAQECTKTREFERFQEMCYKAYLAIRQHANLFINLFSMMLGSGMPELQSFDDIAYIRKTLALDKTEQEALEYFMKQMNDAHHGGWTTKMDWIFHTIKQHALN
T2 sequence (P27986 whole entry partner): as the sequence (P27986 whole entry partner) above

Cc1cccc2cc(Cn3nc(-c4ccc(Cl)c(O)c4)c4c(N)ncnc43)n(C(C)C)c(=O)c12 [Compound 123]
< 100 nM: IC50 (PI3K δ)

Cc1ccccc1-n1c(Cn2nc(-c3cc(O)cc(F)c3)c3c(N)ncnc32)cc2cccc(C)c2c1=O [Compound 113]
< 10000 nM: IC50 (PI3K β)

Cc1ccccc1-n1c(Cn2nc(-c3cccc(O)c3)c3c(N)nccc32)cc2cccc(C)c2c1=O [Compound 119]
< 100 nM: IC50 (PI3K δ)

CC(=O)Nc1nc2ccc(-c3nn(Cc4cc5cccc(C)c5c(=O)n4-c4ccccc4C)c4ncnc(N)c34)cc2s1 [Compound 168]
< 10000 nM: IC50 (PI3K α)

Cc1cccc2cc(C(C)Nc3nc(Cl)ncc3N)n(-c3ccccc3)c(=O)c12 (centres unmarked) [Compound 322]
> 10000 nM: IC50 (PI3K γ) | IC50 (PI3K α) | IC50 (PI3K δ) | IC50 (PI3K β)

Cc1ccccc1-n1c(Cn2nc(I)c3c(N)ncnc32)cc2cccc(C)c2c1=O [Compound 104]
< 1000 nM: IC50 (PI3K γ)
> 10000 nM: IC50 (PI3K β)

Cc1ccccc1-n1c(Cn2cnc3c(N)ncnc32)cc2cccc(C)c2c1=O [Compound 5]
> 10000 nM: IC50 (PI3K γ)
< 10000 nM: IC50 (PI3K δ)

Cc1cccnc1-n1c(Cn2nc(-c3cccc(O)c3)c3c(N)ncnc32)cc2ccccc2c1=O [Compound 94]
< 1000 nM: IC50 (PI3K δ)
< 10000 nM: IC50 (PI3K γ)

C=CC(=O)Nc1cccc(Nc2nc(Nc3ccc(OCCOC)cc3)ncc2F)c1 [AVL-292, N-(3-((5-fluoro-2-((4-(2-methoxyethoxy)phenyl)amino)pyrimidin-4-yl)amino)phenyl)acrylamide]
A1 (A1=0.0001 to <1): Synergy Score (growth inhibition) (RPMI-8226) | Synergy Score (inhibition) (RPMI-8226) | Synergy Score (growth inhibition) (OCI-LY3) | Synergy Score (inhibition) (OCI-LY3) | Synergy Score (inhibition) (U-2932) | Synergy Score (inhibition) (OPM-2) | Synergy Score (growth inhibition) (OCI-Ly7) | Synergy Score (inhibition) (OCI-Ly7) | Synergy Score (inhibition) (HBL-1) | Synergy Score (growth inhibition) (Jeko-1) | Synergy Score (inhibition) (Jeko-1) | Synergy Score (growth inhibition) (KARPAS-299) | Synergy Score (inhibition) (KARPAS-299) | Synergy Score (inhibition) (NCI-H929) | Synergy Score (growth inhibition) (GRANTA-519) | Synergy Score (inhibition) (GRANTA-519) | Synergy Score (inhibition) (KARPAS-422) | Synergy Score (growth inhibition) (RL) | Synergy Score (inhibition) (RL)
A2 (A2=1 to <3): Synergy Score (inhibition) (DOHH-2) | Synergy Score (growth inhibition) (U-2932) | Synergy Score (growth inhibition) (OPM-2) | Synergy Score (inhibition) (Mino) | Synergy Score (growth inhibition) (HBL-1) | Synergy Score (growth inhibition) (HH) | Synergy Score (inhibition) (HH) | Synergy Score (inhibition) (Farage) | Synergy Score (inhibition) (TMD8) | Synergy Score (growth inhibition) (SU-DHL-4-epst) | Synergy Score (inhibition) (SU-DHL-4-epst) | Synergy Score (growth inhibition) (NCI-H929) | Synergy Score (inhibition) (SU-DHL-10-epst) | Synergy Score (growth inhibition) (KARPAS-422) | Synergy Score (inhibition) (WSU-NHL)
T (T=0.5 to <0.7): CI50 (growth inhibition) (DOHH-2) | CI50 (inhibition) (DOHH-2) | CI50 (growth inhibition) (U-2932) | CI50 (growth inhibition) (OPM-2) | CI50 (growth inhibition) (HBL-1) | CI50 (growth inhibition) (HH) | CI50 (growth inhibition) (SU-DHL-4-epst) | CI50 (growth inhibition) (SU-DHL-10-epst) | CI50 (inhibition) (SU-DHL-10-epst) | CI50 (inhibition) (KARPAS-422) | CI50 (growth inhibition) (WSU-NHL)
S (S=0.01 to <0.5): CI50 (growth inhibition) (Mino) | CI50 (inhibition) (Mino) | CI50 (growth inhibition) (Farage) | CI50 (inhibition) (Farage) | CI50 (growth inhibition) (TMD8) | CI50 (inhibition) (TMD8) | CI50 (inhibition) (SU-DHL-4-epst) | CI50 (inhibition) (WSU-NHL)
A3 (A3=>3): Synergy Score (growth inhibition) (DOHH-2) | Synergy Score (growth inhibition) (Mino) | Synergy Score (growth inhibition) (Farage) | Synergy Score (growth inhibition) (TMD8) | Synergy Score (growth inhibition) (SU-DHL-10-epst) | Synergy Score (growth inhibition) (WSU-NHL)
W (W=≧1): CI50 (inhibition) (RPMI-8226) | CI50 (inhibition) (U-2932) | CI50 (growth inhibition) (OCI-Ly7) | CI50 (inhibition) (HBL-1) | CI50 (growth inhibition) (GRANTA-519)
U (U=0.7 to <1): CI50 (growth inhibition) (RPMI-8226) | CI50 (growth inhibition) (OCI-LY3) | CI50 (inhibition) (OPM-2) | CI50 (growth inhibition) (Jeko-1) | CI50 (inhibition) (Jeko-1) | CI50 (inhibition) (HH) | CI50 (growth inhibition) (KARPAS-299) | CI50 (growth inhibition) (NCI-H929) | CI50 (inhibition) (NCI-H929) | CI50 (growth inhibition) (KARPAS-422)

Cc1cccc2cc(Cn3nc(I)c4c(N)ncnc43)n(C(C)C)c(=O)c12 [Compound 129]
< 10000 nM: IC50 (PI3K δ)

Cc1cccc2cc(Cn3nc(-c4ccc5nc(N)oc5c4)c4c(N)ncnc43)n(-c3ccccc3)c(=O)c12 [Compound 235]
< 10000 nM: IC50 (PI3K α) | IC50 (PI3K β)
< 100 nM: IC50 (PI3K γ)
